Measured values taken from patent US5468728A, “Use of orally absorbable motilin preparations to enhance motility of digestive tract” (Sanwa Kagaku Kenkyusho Co., Ltd., priority 1991, dated 1995).

Tested on: intestinal tracts
Test: Contraction of the intestinal tracts in dogs by the balloon method, intravenous and nasal administration
Format: in vivo
From the text: L-leucine-13-motilin (A) and L-leucine-13-motilin-homoserin (B) were administrated to dogs through an intravenous route ([…]) by the ballon method to determine their activities on the contraction of the intestinal tracts, and the action of the surface active agent on promoting the absorption of the active substances administrated through a nasal administration was estimated in terms of percentage relative to the activity--100%-- of L-leucine-13-motilin administrated through an intravenous route on the contraction.
L-leucine-13-motilin-homoserine and L-leucine-13-motilin were each dissolved in purified water to prepare an aqueous solution, which was then aseptically poured into a vial in such a way that it contained the active substance in an amount of 1 mg when calculated as polypeptide. Each vial was finally sealed together and freeze-dried. For use, this vial is dissolved in physiological saline for injection.

[1] = Intravenous Administration (2.0 μg/kg/hr)
[2] = Nasal Administration (100 μg/kg/hr), Control = injection preparation without surface active agent

Substance	activity on the contraction of the intestinal tracts, percentage relative to L-leucine-13-motilin intravenous (100%) [1]	activity on the contraction of the intestinal tracts, percentage relative to L-leucine-13-motilin intravenous (100%) [2]
L-leucine-13-motilin [A]	100 ± 0%	No activity found
L-leucine-13-motilin-homoserine [B]	115 ± 5%	≤ 30%
